Laboratory results as given in patent US20100048621A1, “MEDICAMENT FOR TREATING CHRONIC OBSTRUCTIVE PULMONARY DISEASE” (priority 2007, published 2010).

Tested on: elastase-treated model mouse of COPD
Test: Combination effect of cilostazol/probucol for pulmonary disorder in mouse treated with human neutrophil elastase (COPD model)
Type: in vivo, C57BL/6J mouse
Conditions: free feeding from 7 days before intratracheal human neutrophil elastase 20 U/50 μL, lungs 3 weeks after elastase, mean±standard deviation, control 178.8±22.4, normal 51.4±1.9, P<0.01 vs control
Source text: Combination effect of cilostazol/probucol for pulmonary disorder in C57BL/6J mouse treated with elastase produced from human neutrophil.
• Animals: female C57BL/6J mice (5 weeks old) which were purchased from Charles River Laboratories Japan, Inc. were used.
Group composition: the following 5 groups. • Non-treated (normal control) group: n=4 • Elastase-treated group (control group): n=6 • Elastase-treated, 0.3% cilostazol-administrated group: n=6 • Elastase-treated, 0.5% probucol-administrated group: n=6 • Elastase-treated, (0.3% cilostazol+0.5% probucol)−administrated group: n=6
Female C57BL/6J mice (5 weeks old) were divided into the given groups by a stratified randomization (using an SAS software, R 8.1) based on each body weight on the starting day of administration. Shortly after the group division, a MF feed was given to the non-treated group and the control group, and a mixed feed in which cilostazol or/and probucol was added in the given ratio was given to the medicament(s)-treated groups, in free feeding. […]
The following groups were statistically analyzed in order to study about the effect of the single-administration and combination-administration of the medicament(s). • 1) Elastase-treated group (control group) • 2) 0.3% Cilostazol-administrated group • 3) 0.5% Probucol-administrated group • 4) (0.3% Cilostazol+0.5% probucol)−administrated group […]

| Compound | mean linear intercept of pulmonary alveolus (0.5% probucol in mixed feed) | mean linear intercept of pulmonary alveolus (0.3% cilostazol in mixed feed) |
| --- | --- | --- |
| CC(C)(Sc1cc(C(C)(C)C)c(O)c(C(C)(C)C)c1)Sc1cc(C(C)(C)C)c(O)c(C(C)(C)C)c1 [probucol, 4,4′-isopropylidenedithiobis[2,6-di-tert-butylphenol]] | 86.2±4.8 μm |  |
| O=C1CCc2cc(OCCCCc3nnnn3C3CCCCC3)ccc2N1 [cilostazol, 6-[4-(1-cyclohexyl-1H-tetrazol-5-yl)butoxy]-3,4-dihydrocarbostyril] |  | 116.9±14.3 μm |
